Earlier results, collected in patent US20140187513A1, “METHOD OF IMPROVING SKILLS WITH A COMPOSITION COMPRISING NON-DIGESTIBLE SACCHARIDE” (priority 2007, published 2014).

Conditions: oral, autistic children, pilot study

Structure (SMILES): CN[C@H](CC(C)C)C(=O)N[C@H]1C(=O)N[C@@H](CC(N)=O)C(=O)N[C@H]2C(=O)N[C@H]3C(=O)N[C@H](C(=O)N[C@H](C(=O)O)c4cc(O)cc(O)c4-c4cc3ccc4O)[C@H](O)c3ccc(c(Cl)c3)Oc3cc2cc(c3O[C@@H]2O[C@H](CO)[C@@H](O)[C@H](O)[C@H]2O[C@H]2C[C@](C)(N)[C@H](O)[C@H](C)O2)Oc2ccc(cc2Cl)[C@H]1O [vancomycin]
- cognitive effect following vancomycin treatment: significant cognitive improvement
